Laboratory results as given in publication doi:10.1101/2024.08.19.608619, “Discovery of potent SARS-CoV-2 nsp3 macrodomain inhibitors uncovers lack of translation to cellular antiviral response” (bioRxiv, 2024).
pEC50, pIC50: −log10 of the molar value. Where “and” joins values, the source holds several entries; their conditions need not be identical. Equal values may be shown once. Read-outs that look alike come from different tables or passages of the source.

What was measured:
[1] = Hepatic microsomal stability, HLM; type: in vitro ADME, human; conditions: for perc_remaining_no_cofactor: no cofactor
5-HT2B (h) = molecular target: T1, 5-HT2B (h) (Homo sapiens, UniProt P41595); assay: In vitro CEREP profiling, 5-HT2B (h) (agonist radioligand); type: binding; conditions: test compound concentration 10 uM
T1 construct: purchased Eurofins Cerep (SafetyScreen44), recognised from the panel format
Text: (§1) Supplement media-1.zip/Safety_Panel_Profile.csv, table | column: perc_inhibition

M1 (h) = molecular target: T2, M1 (h) (Homo sapiens, UniProt P11229); assay: In vitro CEREP profiling, M1 (h) (antagonist radioligand); type: binding; conditions: test compound concentration 10 uM
T2 construct: purchased Eurofins Cerep (SafetyScreen44), recognised from the panel format
T2 sequence (P11229 1-460): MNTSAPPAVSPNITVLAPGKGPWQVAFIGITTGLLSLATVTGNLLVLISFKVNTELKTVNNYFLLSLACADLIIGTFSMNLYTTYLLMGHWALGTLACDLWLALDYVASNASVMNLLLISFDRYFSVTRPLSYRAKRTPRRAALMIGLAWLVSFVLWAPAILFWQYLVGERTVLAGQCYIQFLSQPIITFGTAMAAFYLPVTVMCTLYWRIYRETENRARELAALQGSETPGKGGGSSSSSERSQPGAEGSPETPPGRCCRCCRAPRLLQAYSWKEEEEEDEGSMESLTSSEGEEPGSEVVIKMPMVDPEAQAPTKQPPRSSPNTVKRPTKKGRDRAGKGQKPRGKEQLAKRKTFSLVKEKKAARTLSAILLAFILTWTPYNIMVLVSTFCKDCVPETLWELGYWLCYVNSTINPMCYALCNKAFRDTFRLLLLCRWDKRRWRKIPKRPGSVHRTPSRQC
Text: as §1

5-HT1A (h) = molecular target: T3, 5-HT1A (h) (Homo sapiens, UniProt P08908); assay: In vitro CEREP profiling, 5-HT1A (h) (agonist radioligand); type: binding; conditions: test compound concentration 10 uM
T3 construct: purchased Eurofins Cerep (SafetyScreen44), recognised from the panel format
T3 sequence (P08908 1-422): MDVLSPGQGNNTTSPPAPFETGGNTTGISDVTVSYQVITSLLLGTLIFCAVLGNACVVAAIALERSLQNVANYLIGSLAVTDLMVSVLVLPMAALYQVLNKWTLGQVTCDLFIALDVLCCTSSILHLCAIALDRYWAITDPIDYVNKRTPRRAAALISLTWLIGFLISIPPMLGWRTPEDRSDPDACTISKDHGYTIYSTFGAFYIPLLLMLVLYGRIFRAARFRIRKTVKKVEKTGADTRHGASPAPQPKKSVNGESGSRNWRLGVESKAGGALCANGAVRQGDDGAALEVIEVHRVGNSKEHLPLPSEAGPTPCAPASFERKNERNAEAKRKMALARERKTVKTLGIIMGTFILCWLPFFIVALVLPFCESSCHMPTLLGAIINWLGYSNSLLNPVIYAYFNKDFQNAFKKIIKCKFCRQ
Text: as §1

NaV1.5 = NaV1.5 (Homo sapiens, UniProt Q14524); assay: In vitro NaV1.5 cardiotoxicity; conditions: top test concentration 30 uM
Text: Supplement media-1.zip/Cardiotoxicity.csv, table | column: ic50_rest_state; ic50_use_dep_block; perc_inhibition_rest_state; perc_inhibition_use_dep_block

[2] = molecular target: T4, Potassium Channel hERG (human) (Homo sapiens, UniProt Q12809); assay: In vitro CEREP profiling, Potassium Channel hERG (human)- [3H] Dofetilide; type: binding; conditions: test compound concentration 10 uM
T4 construct: purchased Eurofins Cerep (SafetyScreen44), recognised from the panel format
Text: as §1

NMDA = assay: In vitro CEREP profiling, NMDA (antagonist radioligand); type: binding; conditions: test compound concentration 10 uM
Text: as §1

hERG = hERG (Homo sapiens, UniProt Q12809); assay: In vitro hERG cardiotoxocity; conditions: for pIC50: top test concentration 30 uM
Text: Supplement media-1.zip/Cardiotoxicity.csv, table | column: ic50; perc_inhibition_top_conc

H2 (h) = molecular target: T5, H2 (h) (Homo sapiens, UniProt P25021); assay: In vitro CEREP profiling, H2 (h) (antagonist radioligand); type: binding; conditions: test compound concentration 10 uM
T5 construct: purchased Eurofins Cerep (SafetyScreen44), recognised from the panel format
Text: as §1

[3] = In vitro rat hepatocyte stability; type: in vitro ADME
Text: (§2) Supplement media-1.zip/Hepatocyte_Stability.csv, table | column: clint; t_half

D1 (h) = molecular target: T6, D1 (h) (Homo sapiens, UniProt P21728); assay: In vitro CEREP profiling, D1 (h) (antagonist radioligand); type: binding; conditions: test compound 10 uM
T6 construct: purchased Eurofins Cerep (SafetyScreen44), recognised from the panel format
Text: as §1

COX1(h) = molecular target: T7, COX1(h) (Homo sapiens, UniProt P23219); assay: In vitro CEREP profiling, COX1(h); type: biochemical; conditions: test compound concentration 10 uM, Enzyme and Cell-based assays
T7 construct: purchased Eurofins Cerep (SafetyScreen44), recognised from the panel format
Text: as §1

mu (MOP) (h) = molecular target: T8, mu (MOP) (h) (Homo sapiens, UniProt P35372); assay: In vitro CEREP profiling, mu (MOP) (h) (agonist radioligand); type: binding; conditions: test compound concentration 10 uM
T8 construct: purchased Eurofins Cerep (SafetyScreen44), recognised from the panel format
Text: as §1

5-HT transporter (h) = molecular target: T9, 5-HT transporter (h) (Homo sapiens, UniProt P31645); assay: In vitro CEREP profiling, 5-HT transporter (h) (antagonist radioligand); conditions: test compound concentration 10 uM
T9 construct: purchased Eurofins Cerep (SafetyScreen44), recognised from the panel format
Text: as §1

[4] = test system: SARS-CoV-2, isolate USA-WA1/2020; assay: microbe, parasite or virus in culture; type: cell-based
[5] = molecular target: T10, norepinephrine transporter (h) (Homo sapiens, UniProt P23975); assay: In vitro CEREP profiling, norepinephrine transporter (h) (antagonist radioligand); type: binding; conditions: test compound concentration 10 uM
T10 construct: purchased Eurofins Cerep (SafetyScreen44), recognised from the panel format
Text: as §1

[6] = In vitro mouse hepatocyte stability; type: in vitro ADME
Text: as §2

[7] = In vitro human liver microsomal stability
[8] = NaV1.5, rest state, read-out: ic50_rest_state
[9] = NaV1.5, use dependent block, read-out: ic50_use_dep_block
[10] = HeLa-ACE2 SARS-CoV-2 antiviral effect without P-gp inhibitor, maximum measured response
[11] = HeLa-ACE2 SARS-CoV-2 antiviral effect without P-gp inhibitor, maximum measured response of dose series
[12] = HeLa-ACE2 SARS-CoV-2 antiviral effect without P-gp inhibitor, minimum measured response
[13] = HeLa-ACE2 SARS-CoV-2 antiviral effect without P-gp inhibitor, minimum measured response of dose series
[14] = HeLa-ACE2 SARS-CoV-2 antiviral effect without P-gp inhibitor, read-out: ec50
[15] = HeLa-ACE2 SARS-CoV-2 antiviral effect without P-gp inhibitor, read-out: ec90
[16] = read-out: perc_inhibition, % inhibition of the binding of a ligand specific for each target
[17] = read-out: perc_inhibition (% inhibition of the binding of a ligand specific for each target)
[18] = Severe acute respiratory syndrome coronavirus 2, HeLa-ACE2

T1 sequence (P41595 whole entry): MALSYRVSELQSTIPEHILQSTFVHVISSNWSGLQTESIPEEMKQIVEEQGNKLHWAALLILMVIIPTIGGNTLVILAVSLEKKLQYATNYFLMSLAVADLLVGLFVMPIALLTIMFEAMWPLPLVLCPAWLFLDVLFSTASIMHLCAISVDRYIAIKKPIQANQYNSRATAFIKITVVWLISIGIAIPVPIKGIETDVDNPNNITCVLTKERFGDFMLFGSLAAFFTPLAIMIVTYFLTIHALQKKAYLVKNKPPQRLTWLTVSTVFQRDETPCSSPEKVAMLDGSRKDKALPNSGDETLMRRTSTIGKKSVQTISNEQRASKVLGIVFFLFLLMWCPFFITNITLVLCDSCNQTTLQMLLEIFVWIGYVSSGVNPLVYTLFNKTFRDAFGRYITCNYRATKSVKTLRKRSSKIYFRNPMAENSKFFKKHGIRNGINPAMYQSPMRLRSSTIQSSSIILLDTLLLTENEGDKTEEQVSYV
T9 sequence (P31645 whole entry): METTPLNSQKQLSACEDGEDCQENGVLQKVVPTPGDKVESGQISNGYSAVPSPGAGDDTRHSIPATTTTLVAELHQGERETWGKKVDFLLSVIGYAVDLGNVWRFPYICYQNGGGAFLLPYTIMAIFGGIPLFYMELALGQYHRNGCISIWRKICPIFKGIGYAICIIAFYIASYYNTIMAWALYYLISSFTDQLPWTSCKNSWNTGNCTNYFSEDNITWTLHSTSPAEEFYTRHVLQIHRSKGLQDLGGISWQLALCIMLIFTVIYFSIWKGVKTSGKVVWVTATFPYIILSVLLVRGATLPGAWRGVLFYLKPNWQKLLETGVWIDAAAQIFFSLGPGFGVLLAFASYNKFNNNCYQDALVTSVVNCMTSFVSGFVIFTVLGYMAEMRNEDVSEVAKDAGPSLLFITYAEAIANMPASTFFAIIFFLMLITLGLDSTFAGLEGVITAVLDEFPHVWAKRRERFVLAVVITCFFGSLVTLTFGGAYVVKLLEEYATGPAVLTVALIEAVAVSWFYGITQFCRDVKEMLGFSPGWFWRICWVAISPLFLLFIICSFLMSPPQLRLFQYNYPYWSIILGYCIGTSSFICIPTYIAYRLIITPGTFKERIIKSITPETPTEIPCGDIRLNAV
T5 sequence (P25021 whole entry): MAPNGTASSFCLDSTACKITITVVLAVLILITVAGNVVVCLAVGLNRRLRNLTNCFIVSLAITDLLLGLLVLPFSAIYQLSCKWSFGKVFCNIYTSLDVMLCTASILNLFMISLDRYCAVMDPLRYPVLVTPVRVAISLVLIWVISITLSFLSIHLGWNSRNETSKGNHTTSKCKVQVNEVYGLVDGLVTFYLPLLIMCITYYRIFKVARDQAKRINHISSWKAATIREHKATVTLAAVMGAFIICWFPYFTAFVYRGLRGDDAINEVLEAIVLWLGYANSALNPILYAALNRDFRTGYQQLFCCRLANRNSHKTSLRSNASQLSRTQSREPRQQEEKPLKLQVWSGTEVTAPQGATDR
T10 sequence (P23975 whole entry): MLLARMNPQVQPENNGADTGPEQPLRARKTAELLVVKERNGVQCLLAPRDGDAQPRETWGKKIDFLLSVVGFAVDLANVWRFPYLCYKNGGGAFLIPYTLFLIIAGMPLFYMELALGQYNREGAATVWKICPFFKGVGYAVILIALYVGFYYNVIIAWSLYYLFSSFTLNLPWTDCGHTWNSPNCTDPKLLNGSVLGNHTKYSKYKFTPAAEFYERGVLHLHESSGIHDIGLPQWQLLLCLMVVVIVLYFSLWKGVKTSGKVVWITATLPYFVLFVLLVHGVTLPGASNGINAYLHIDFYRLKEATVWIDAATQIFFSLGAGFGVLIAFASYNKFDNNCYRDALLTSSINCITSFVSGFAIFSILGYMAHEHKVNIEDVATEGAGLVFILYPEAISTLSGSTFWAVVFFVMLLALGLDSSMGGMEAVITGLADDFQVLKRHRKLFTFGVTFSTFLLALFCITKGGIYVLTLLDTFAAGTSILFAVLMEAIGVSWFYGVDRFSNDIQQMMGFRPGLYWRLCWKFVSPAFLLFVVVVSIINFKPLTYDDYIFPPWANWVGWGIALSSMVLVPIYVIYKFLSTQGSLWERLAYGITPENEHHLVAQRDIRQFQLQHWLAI
Chain of hERG (Q12809 whole entry): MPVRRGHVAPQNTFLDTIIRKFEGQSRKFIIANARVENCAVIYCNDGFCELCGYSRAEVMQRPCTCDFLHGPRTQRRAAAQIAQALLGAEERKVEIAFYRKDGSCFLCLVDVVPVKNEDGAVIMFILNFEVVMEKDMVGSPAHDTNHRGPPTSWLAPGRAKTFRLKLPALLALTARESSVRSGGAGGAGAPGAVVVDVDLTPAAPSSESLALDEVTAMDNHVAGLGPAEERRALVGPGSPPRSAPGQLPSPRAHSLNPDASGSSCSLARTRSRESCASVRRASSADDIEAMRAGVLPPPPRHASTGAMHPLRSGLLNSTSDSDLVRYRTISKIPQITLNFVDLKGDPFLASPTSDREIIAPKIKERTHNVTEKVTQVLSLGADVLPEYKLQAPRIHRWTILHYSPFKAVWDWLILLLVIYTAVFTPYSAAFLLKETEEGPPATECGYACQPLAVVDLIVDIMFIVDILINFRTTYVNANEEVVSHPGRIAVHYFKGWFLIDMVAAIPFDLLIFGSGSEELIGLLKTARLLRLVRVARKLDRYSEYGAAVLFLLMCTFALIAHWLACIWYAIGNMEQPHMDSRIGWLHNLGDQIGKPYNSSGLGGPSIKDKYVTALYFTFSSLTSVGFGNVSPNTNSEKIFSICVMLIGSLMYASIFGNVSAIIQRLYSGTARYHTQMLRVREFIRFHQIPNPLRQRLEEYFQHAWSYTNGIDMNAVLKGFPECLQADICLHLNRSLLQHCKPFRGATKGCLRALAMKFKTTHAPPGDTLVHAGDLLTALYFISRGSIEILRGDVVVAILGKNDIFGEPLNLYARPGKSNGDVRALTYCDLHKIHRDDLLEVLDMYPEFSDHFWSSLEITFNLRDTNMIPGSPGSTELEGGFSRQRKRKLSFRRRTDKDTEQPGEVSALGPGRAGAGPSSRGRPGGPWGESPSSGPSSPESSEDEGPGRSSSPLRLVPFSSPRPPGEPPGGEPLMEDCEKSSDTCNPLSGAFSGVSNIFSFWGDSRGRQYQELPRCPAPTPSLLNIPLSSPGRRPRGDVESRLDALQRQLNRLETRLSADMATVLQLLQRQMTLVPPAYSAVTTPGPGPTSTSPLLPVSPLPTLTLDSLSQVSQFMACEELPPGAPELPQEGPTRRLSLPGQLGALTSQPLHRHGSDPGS
T4 sequence (Q12809 whole entry): as above
T7 sequence (P23219 24-599): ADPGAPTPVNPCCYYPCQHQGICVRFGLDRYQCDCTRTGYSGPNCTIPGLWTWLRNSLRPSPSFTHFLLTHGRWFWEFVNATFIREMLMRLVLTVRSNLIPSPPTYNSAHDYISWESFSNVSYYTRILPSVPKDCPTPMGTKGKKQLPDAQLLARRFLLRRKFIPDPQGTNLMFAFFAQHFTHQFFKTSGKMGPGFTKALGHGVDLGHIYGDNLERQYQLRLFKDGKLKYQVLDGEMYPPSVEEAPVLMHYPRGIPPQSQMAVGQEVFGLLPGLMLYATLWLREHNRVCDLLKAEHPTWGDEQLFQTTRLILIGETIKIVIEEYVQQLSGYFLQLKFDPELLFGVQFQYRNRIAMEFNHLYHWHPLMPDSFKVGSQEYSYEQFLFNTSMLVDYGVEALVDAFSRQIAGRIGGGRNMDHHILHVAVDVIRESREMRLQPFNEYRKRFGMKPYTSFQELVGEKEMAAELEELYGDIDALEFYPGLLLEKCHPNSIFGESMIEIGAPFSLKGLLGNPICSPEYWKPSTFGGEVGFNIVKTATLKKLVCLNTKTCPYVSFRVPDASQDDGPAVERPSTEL

Row | SMILES | perc_remaining [1, 7] [%] | t_half [1, 7] [min] | perc_remaining_no_cofactor [1, 7] [%] | perc_inhibition (% inhibition of the binding of a ligand specific for each target) (5-HT2B (h)) [%] | perc_inhibition (% inhibition of the binding of a ligand specific for each target) (M1 (h)) [%] | perc_inhibition (% inhibition of the binding of a ligand specific for each target) (5-HT1A (h)) [%] | perc_inhibition_rest_state (NaV1.5; NaV1.5, rest state) [%] | pIC50 (NaV1.5; [8]) | pIC50 (NaV1.5; [9]) | perc_inhibition (% inhibition of the binding of a ligand specific for each target) (NMDA) [%] | pIC50 (hERG) | clint [3] [uL/min/1E6 cells] | t_half [3] | perc_inhibition: % inhibition of the binding of a ligand specific for each target, 5-HT transporter (h) (antagonist radioligand) (5-HT transporter (h)) [%] | perc_max_measured [4, 10] [%] | perc_max_measured [4, 11] [%] | perc_min_measured [4, 12] [%] | perc_min_measured [4, 13] [%] | clint [6] [uL/min/1E6 cells] | t_half [6] | other results
1 | CC(C)[C@H](Nc1ncnc2[nH]ccc12)c1ccc2c(c1)S(=O)(=O)CCC2 [ASAP-0008674] | 37.0 | 29.5 | 92.0 | 54 | 19 | 12 | 19.0 | < 4.52 | < 4.52 | -1 | < 4.52 | 75.8 | 9.15 min | 0 | 158.705 | 129.029 | 84.767 | 103.942 | 567.0 | 1.22 min | clint [1, 7]: 57.0 µL/min/mg; perc_inhibition_use_dep_block (NaV1.5; NaV1.5, use dependent block): 29.0%; perc_inhibition (% inhibition of the binding of a ligand specific for each target) [2]: 20%; perc_inhibition_top_conc (hERG; at top test concentration 30 uM): 39.0%; perc_inhibition (% inhibition of the binding of a ligand specific for each target) (H2 (h)): -6%; perc_inhibition (% inhibition of the binding of a ligand specific for each target) (D1 (h)): -4%; perc_inhibition: % inhibition of control enzyme activity, COX1(h) (COX1(h)): 85%; perc_inhibition (% inhibition of the binding of a ligand specific for each target) (mu (MOP) (h)): 8%; pEC50 [4, 14]: < 4.70; EC90 [4, 15]: > 20 µM; perc_inhibition (% inhibition of the binding of a ligand specific for each target) [5]: -3%
2 | CC(C)[C@H](Nc1ncnc2[nH]c(-c3cnn(C)c3C#N)cc12)c1ccc2c(n1)OCCO2 [ASAP-0010715] | 78.0 | 100.0 | 116.0 | 18 | 7 | 43 | 33.0 | < 4.52 | < 4.52 | 2 | 4.96 | 87.5 | 7.92 min | 4 | 105.242 | 125.33 | 1.508 | 4.425 | 91.6 | 7.57 min | clint [1, 7]: 17.0 µL/min/mg; perc_inhibition_use_dep_block (NaV1.5; NaV1.5, use dependent block): 35.0%; perc_inhibition (% inhibition of the binding of a ligand specific for each target) [2]: 29%; perc_inhibition (% inhibition of the binding of a ligand specific for each target) (H2 (h)): -16%; perc_inhibition (% inhibition of the binding of a ligand specific for each target) (D1 (h)): 27%; perc_inhibition: % inhibition of control enzyme activity, COX1(h) (COX1(h)): -39%; perc_inhibition (% inhibition of the binding of a ligand specific for each target) (mu (MOP) (h)): 15%; pEC50 [4, 14]: 6.29 and 6.09; EC90 [4, 15]: 1.96 µM and 3.36 µM; perc_inhibition (% inhibition of the binding of a ligand specific for each target) [5]: 9%
3 | CC(C)[C@@H](Nc1ncnc2[nH]c(-c3cnn(C)c3C#N)cc12)c1ccc2c(n1)OCCO2 [ASAP-0010716] | – | – | – | 40 | 8 | 22 | 27.0 | < 4.52 | < 4.52 | 1 | 5.00 | 182.0 | 3.8 min | 9 | 105.062 | 119.294 | 1.471 | 1.653 | 217.0 | 3.19 min | perc_inhibition_use_dep_block (NaV1.5; NaV1.5, use dependent block): 25.0%; perc_inhibition (% inhibition of the binding of a ligand specific for each target) [2]: 32%; perc_inhibition (% inhibition of the binding of a ligand specific for each target) (H2 (h)): -11%; perc_inhibition (% inhibition of the binding of a ligand specific for each target) (D1 (h)): 10%; perc_inhibition: % inhibition of control enzyme activity, COX1(h) (COX1(h)): -34%; perc_inhibition (% inhibition of the binding of a ligand specific for each target) (mu (MOP) (h)): 77%; EC90 [4, 15]: 7.55 µM and 9.22 µM; perc_inhibition (% inhibition of the binding of a ligand specific for each target) [5]: 4%
4 | CC(C)C(Nc1ncnc2[nH]c(C(=O)NC3CCN(C)C3)cc12)c1ccc2c(c1)S(=O)(=O)CCC2 (stereo not shown) [ASAP-0011198] | 70.0 | 83.8 | 106.0 | – | – | – | – | < 4.52 | < 4.52 | 1 | < 4.52 | 9.3 | 145.0 min and 74.8 min | 1 | 109.068 | 108.327 | 93.8 | 87.557 | 61.0 | 10.1 min and 11.4 min | clearance (metabolic stability), in words ([1]; HLM/MLM): low clearance; microsomal CLint ([1]; liver microsomes, In vitro human liver microsomal stability): 20 µL/min/mg; inhibition at 10 µM (5-HT2B (h); [16]): 6%; inhibition at 10 µM (M1 (h); [17]): 17%; inhibition at 10 µM (5-HT1A (h); [17]): 14%; inhibition at 30 µM (NaV1.5; NaV1.5, rest state, read-out: perc_inhibition_rest_state): 11%; inhibition at 30 µM (NaV1.5; NaV1.5, use dependent block, read-out: perc_inhibition_use_dep_block): 11%; perc_inhibition_top_conc (hERG; at top test concentration 30 uM, 30 µM): 23.0%; inhibition at 30 µM (hERG; human, at top test concentration 30 uM, read-out: perc_inhibition_top_conc): 18%; inhibition at 10 µM (H2 (h); [17]): -9%; hepatocyte CLint ([3]; rat, hepatocytes): 4.78 µL/min/1e6 cells; inhibition at 10 µM (D1 (h); [17]): -3%; inhibition at 10 µM (COX1(h); read-out: perc_inhibition: % inhibition of control enzyme activity, COX1(h)): 44%; inhibition at 10 µM (mu (MOP) (h); [17]): 7%; pEC50 [4, 18]: < 4.70; EC90 [4, 18]: > 20 µM; pEC50 ([4]; Severe acute respiratory syndrome coronavirus 2, HeLa-ACE2, read-out: HelaACE2 EC50): < 4.70; inhibition at 10 µM [5, 16]: -1%; hepatocyte CLint ([6]; mouse, hepatocytes): 68.4 µL/min/1e6 cells
